Data taken from US11214803B2, “Modulators of YAP1 expression” (Ionis Pharmaceuticals, Inc., priority 2019, dated 2022).
Strand notation (5' to 3'): a small letter for the sugar, then the base; units joined by * are phosphorothioate-linked, units joined directly phosphodiester-linked; [ ] holds rarer units or linkages, { } end groups; capitals alone tell only the bases. k = constrained ethyl (cEt); [5mC] = 5-methylcytosine; d = 2'-deoxy (DNA)

What was measured:
CAL27 cells = assay: Cell proliferation assay in CAL27 cells, CellTiter-Glo (Example 37); assay type: cell-based, human; details: free uptake, approximately 144 hours
Method: Modified oligonucleotides described in the studies above were tested at various doses in tongue squamous cell carcinoma line CAL27. A control oligonucleotide 792169, described herein above, was also tested.
(§1) Cultured CAL27 cells at a density of 1000 cells/well were treated using free uptake with modified oligonucleotides diluted to concentrations described in the tables below. After approximately 144 hours, cell proliferation was measured using the luminescent cell viability CellTiter-Glo® 2.0 Assay (Promega). Results are presented in the tables below as percent control of the amount of luminescence in samples treated with modified oligonucleotides relative to untreated control cells (% UTC).

Yap1 mRNA = Yap1 mRNA in SCC-9 cells, RNA analysis (Example 40); assay type: cell-based, human; details: free uptake, approximately 48 hours
Method: Modified oligonucleotides described in the studies above were tested at various doses in tongue squamous cell carcinoma cell line SCC-9. A control oligonucleotide 792169, described herein above, was also tested.
Cultured SCC-9 cells at a density of 5000 cells per well were treated using free uptake with modified oligonucleotides diluted to concentrations described in the tables below. After approximately 48 hours, Yap1 mRNA levels were measured as previously described using the Human Yap1 primer-probe set RTS4814. Yap1 mRNA levels were normalized to actin-beta content, as measured by primer probe set RTS5002. Results are presented in the tables below as percent control of the amount of Yap1 mRNA relative to untreated control cells (% UTC).

NCI H292 cells = assay: Cell proliferation assay in NCI H292 cells, CellTiter-Glo (Example 32); assay type: cell-based, human; details: free uptake, approximately 144 hours
Method: Modified oligonucleotides described in the studies above were tested at various doses in mucoepidermoid pulmonary carcinoma cell line […]. A control oligonucleotide 792169 was also tested.
as §1, with “NCI H292” for “CAL27”

SCC-4 cells = assay: Cell proliferation assay in SCC-4 cells, CellTiter-Glo (Example 39); assay type: cell-based, human; details: free uptake, approximately 144 hours
Method: Modified oligonucleotides described in the studies above were tested at various doses in tongue squamous cell carcinoma cell line SCC 4. A control oligonucleotide 792169, described herein above, was also tested.
as §1, with “SCC-4” for “CAL27”

SNU-1066 cells = assay: Cell proliferation assay in SNU-1066 cells, CellTiter-Glo (Example 44); assay type: cell-based, human; details: free uptake, approximately 144 hours
Method: Modified oligonucleotides described in the studies above were tested at various doses in laryngeal squamous cell carcinoma line SNU-1066. A control oligonucleotide 792169, described herein above, was also tested.
as §1, with “SNU-1066” for “CAL27”

BICR-22 cells = assay: Cell proliferation assay in BICR-22 cells, CellTiter-Glo (Example 35); assay type: cell-based, human; details: free uptake, approximately 144 hours
Method: Modified oligonucleotides described in the studies above were tested at various doses in tongue squamous carcinoma (lymph node metastasis) cell line BICR-22. A control oligonucleotide 792169, described herein above, was also tested.
as §1, with “BICR-22” for “CAL27”

UPCI:SCC090 cells = assay: Cell proliferation assay in UPCI:SCC090 cells, CellTiter-Glo (Example 47); assay type: cell-based, human; details: free uptake, approximately 144 hours
Method: Modified oligonucleotides described in the studies above were tested at various doses in tongue squamous cell carcinoma cell line UPCI:SCC090. A control oligonucleotide 792169, described herein above, was also tested.
as §1, with “UPCI:SCC090” for “CAL27”

[1] = Tolerability in CD-1 mice, body and organ weights (Example 19); assay type: in vivo; details: male CD-1 mice, 50 mg/kg s.c. twice a week for four weeks (8 treatments), end of study (day 26)
Method: Groups of four male CD-1 mice at 4-6 weeks of age (obtained from Charles River) were injected subcutaneously twice a week for four weeks (for a total of 8 treatments) with 50 mg/kg of modified oligonucleotides. One group of male CD-1 mice was injected with PBS. Mice were euthanized on day 26 post start of treatment (24 hrs following the final administration).
Body weights of CD-1 mice were measured at the end of the study, and the average body weight for each group is presented in the table below. Modified oligonucleotides that caused any changes in organ weights outside the expected range for modified oligonucleotides were excluded from further studies.

Substance	Antiproliferative effect (cell proliferation, luminescence) (CAL27 cells; 0.08 μM) [% UTC]	Antiproliferative effect (cell proliferation, luminescence) (CAL27 cells; 0.4 μM) [% UTC]	Antiproliferative effect (cell proliferation, luminescence) (CAL27 cells; 2 μM) [% UTC]	Antiproliferative effect (cell proliferation, luminescence) (CAL27 cells; 10 μM) [% UTC]	human Yap1 mRNA expression (Yap1 mRNA; 0.04 μM) [% UTC]	human Yap1 mRNA expression (Yap1 mRNA; 0.2 μM) [% UTC]	human Yap1 mRNA expression (Yap1 mRNA; 1 μM) [% UTC]	human Yap1 mRNA expression (Yap1 mRNA; 5 μM) [% UTC]	Antiproliferative effect (cell proliferation, luminescence) (NCI H292 cells; 0.04 μM) [% UTC]	Antiproliferative effect (cell proliferation, luminescence) (NCI H292 cells; 0.2 μM) [% UTC]	Antiproliferative effect (cell proliferation, luminescence) (NCI H292 cells; 1 μM) [% UTC]	Antiproliferative effect (cell proliferation, luminescence) (NCI H292 cells; 5 μM) [% UTC]	Antiproliferative effect (cell proliferation, luminescence) (SCC-4 cells; 0.04 μM) [% UTC]	Antiproliferative effect (cell proliferation, luminescence) (SCC-4 cells; 0.2 μM) [% UTC]	Antiproliferative effect (cell proliferation, luminescence) (SCC-4 cells; 1 μM) [% UTC]	Antiproliferative effect (cell proliferation, luminescence) (SCC-4 cells; 5 μM) [% UTC]	Antiproliferative effect (cell proliferation, luminescence) (SNU-1066 cells; 0.04 μM) [% UTC]	Antiproliferative effect (cell proliferation, luminescence) (SNU-1066 cells; 0.2 μM) [% UTC]	Antiproliferative effect (cell proliferation, luminescence) (SNU-1066 cells; 1 μM) [% UTC]	Antiproliferative effect (cell proliferation, luminescence) (SNU-1066 cells; 5 μM) [% UTC]	other results
715487 (kA*kT*kT*dA*d[5mC]*dT*dT*d[5mC]*dA*dT*dA*dG*d[5mC]*kT*kT*kA) [compound 715487]	95	85	67	33	74	44	21	11	87	90	69	20	158	121	106	69	97	86	72	47	Antiproliferative effect (cell proliferation, luminescence) (BICR-22 cells; 0.04 μM): 70 % UTC; Antiproliferative effect (cell proliferation, luminescence) (BICR-22 cells; 0.2 μM): 56 % UTC; Antiproliferative effect (cell proliferation, luminescence) (BICR-22 cells; 1 μM): 28 % UTC; Antiproliferative effect (cell proliferation, luminescence) (BICR-22 cells; 5 μM): 22 % UTC; Antiproliferative effect (cell proliferation, luminescence) (UPCI:SCC090 cells; 0.04 μM): 92 % UTC; Antiproliferative effect (cell proliferation, luminescence) (UPCI:SCC090 cells; 0.2 μM): 94 % UTC; Antiproliferative effect (cell proliferation, luminescence) (UPCI:SCC090 cells; 1 μM): 72 % UTC; Antiproliferative effect (cell proliferation, luminescence) (UPCI:SCC090 cells; 5 μM): 68 % UTC
1198440 (AAGTGTATGTCAGAAG; cEt, 2'-MOE, 5-methylcytosine, phosphorothioate modifications, further chemistry not given here) [compound 1198440]	86	85	83	51	53	18	6	2	100	83	30	15	82	60	21	11	89	66	58	43	Kidney weight [1]: 0.46 g; Liver weight [1]: 1.97 g; Spleen weight [1]: 0.18 g; body weight [1]: 35 g; Antiproliferative effect (cell proliferation, luminescence) (BICR-22 cells; 0.04 μM): 55 % UTC; Antiproliferative effect (cell proliferation, luminescence) (BICR-22 cells; 0.2 μM): 37 % UTC; Antiproliferative effect (cell proliferation, luminescence) (BICR-22 cells; 1 μM): 29 % UTC; Antiproliferative effect (cell proliferation, luminescence) (BICR-22 cells; 5 μM): 19 % UTC; Antiproliferative effect (cell proliferation, luminescence) (UPCI:SCC090 cells; 0.04 μM): 101 % UTC; Antiproliferative effect (cell proliferation, luminescence) (UPCI:SCC090 cells; 0.2 μM): 92 % UTC; Antiproliferative effect (cell proliferation, luminescence) (UPCI:SCC090 cells; 1 μM): 75 % UTC; Antiproliferative effect (cell proliferation, luminescence) (UPCI:SCC090 cells; 5 μM): 70 % UTC
CGCCGATAAGGTACAC (cEt gapmer, phosphorothioate backbone, further chemistry not given here) [ION 792169, reference compound]	96	102	103	90	86	94	96	101	98	97	99	92	125	169	142	136	100	104	102	96	Antiproliferative effect (cell proliferation, luminescence) (BICR-22 cells; 0.04 μM): 97 % UTC; Antiproliferative effect (cell proliferation, luminescence) (BICR-22 cells; 0.2 μM): 95 % UTC; Antiproliferative effect (cell proliferation, luminescence) (BICR-22 cells; 1 μM): 82 % UTC; Antiproliferative effect (cell proliferation, luminescence) (BICR-22 cells; 5 μM): 65 % UTC; Antiproliferative effect (cell proliferation, luminescence) (UPCI:SCC090 cells; 0.04 μM): 100 % UTC; Antiproliferative effect (cell proliferation, luminescence) (UPCI:SCC090 cells; 0.2 μM): 104 % UTC; Antiproliferative effect (cell proliferation, luminescence) (UPCI:SCC090 cells; 1 μM): 99 % UTC; Antiproliferative effect (cell proliferation, luminescence) (UPCI:SCC090 cells; 5 μM): 93 % UTC
1198439 (AGTGTATGTCAGAAGA; sugar, 5-methylcytosine, phosphorothioate modifications, further chemistry not given here) [compound 1198439]																					Kidney weight [1]: 0.51 g; Liver weight [1]: 2.03 g; Spleen weight [1]: 0.25 g; body weight [1]: 36 g
1198872 (TGTATGTCAGAAGAGT; chemically modified gapmer, further chemistry not given here) [compound 1198872]																					Kidney weight [1]: 0.40 g; Liver weight [1]: 1.84 g; Spleen weight [1]: 0.16 g; body weight [1]: 34 g
